Laboratory results taken from patent US10588317B2, “Isoxazoline-substituted benzamides and analogues as insecticides” (priority 2015, dated 2020).
Where two headings read alike, the source gives them in different places.

Tests used:
Type in all cases: in vivo
Diabrotica balteata = Diabrotica balteata (corn root worm), sprayed maize sprouts; settings: 96 h, read-out: effect in at least one of the two categories (mortality or growth inhibition); for percent effect (mortality or growth inhibition) at 200 ppm: application rate 200 ppm, L2 larvae, 4 days after infestation
Outline: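 Maize sprouts on agar sprayed with aqueous dilutions of DMSO stocks, dried, then infested with L2 larvae (6–10 per well). Mortality and growth inhibition scored against untreated controls 4 days after infestation, at 200 ppm application rate.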

Spodoptera littoralis = Spodoptera littoralis (Egyptian cotton leaf worm), sprayed cotton leaf discs; settings: foliar, 72 h, read-out: control (mortality, anti-feeding effect, growth inhibition)
Outline: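 Cotton leaf discs on agar sprayed with aqueous test solutions made from 10'000 ppm DMSO stock; after drying, infested with five L1 larvae. Mortality, anti-feeding and growth inhibition scored versus untreated samples 3 days after infestation; control counted when any category exceeds untreated.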

Plutella xylostella = Plutella xylostella (diamond back moth), artificial diet; settings: 120 h, read-out: effect in at least one of the two categories (mortality or growth inhibition); for percent effect (mortality or growth inhibition) at 200 ppm: application rate 200 ppm, L2 larvae, 5 days after infestation
Outline: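 Artificial diet in 24-well plates treated with aqueous test solutions made from 10'000 ppm DMSO stocks, dried, then infested with L2 larvae (10 to 15 per well). Mortality and growth inhibition scored against untreated samples 5 days after infestation; activity cut-off at least 80% in either category at 200 ppm.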

Myzus persicae = Myzus persicae (green peach aphid): feeding/contact activity; settings: 144 h
Protocol: Sunflower leaf discs were placed onto agar in a 24-well microtiter plate and sprayed with aqueous test solutions prepared from 10'000 ppm DMSO stock solutions. After drying, the leaf discs were infested with an aphid population of mixed ages. The samples were assessed for mortality 6 days after infestation.

Euschistus heros = Euschistus heros (neotropical brown stink bug), sprayed soybean leaves; settings: 120 h, read-out: effect in at least one of the two categories (mortality or growth inhibition); for percent effect (mortality or growth inhibition) at 200 ppm: application rate 200 ppm, N2 nymphs, 5 days after infestation
Outline: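 Soybean leaves on agar sprayed with aqueous dilutions of DMSO stocks, dried, then infested with N2 nymphs. Mortality and growth inhibition scored against untreated samples 5 days after infestation; application rate 200 ppm.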

Thrips tabaci = Thrips tabaci (onion thrips): feeding/contact activity; settings: 144 h
Protocol: Sunflower leaf discs were placed on agar in 24-well microtiter plates and sprayed with aqueous test solutions prepared from 10'000 ppm DMSO stock solutions. After drying the leaf discs were infested with a Thrips population of mixed ages. The samples were assessed for mortality 6 days after infestation.

Tetranychus urticae = Tetranychus urticae (two-spotted spider mite): feeding/contact activity; settings: 192 h
Protocol: Bean leaf discs on agar in 24-well microtiter plates were sprayed with aqueous test solutions prepared from 10'000 ppm DMSO stock solutions. After drying the leaf discs were infested with a mite population of mixed ages. The samples were assessed for mortality on mixed population (mobile stages) 8 days after infestation.

[1] = application rate 200 ppm, L1 larvae, 3 days after infestation
[2] = application rate 200 ppm, aphid population of mixed ages, 6 days after infestation, read-out: mortality
[3] = application rate 200 ppm, Thrips population of mixed ages, 6 days after infestation, read-out: mortality
[4] = application rate 200 ppm, mixed population (mobile stages), 8 days after infestation, read-out: mortality

Cc1cc(C2=NO[C@@](c3cc(Cl)c(Cl)c(Cl)c3)(C(F)(F)F)C2)ccc1C(=O)NC1CON(S(=O)(=O)F)C1 (stereo partly drawn) [Compound A106, 4-[[2-methyl-4-[(5S)-5-(3,4,5-trichlorophenyl)-5-(trifluoromethyl)-4H-isoxazol-3-yl]benzoyl]amino]isoxazolidine-2-sulfonyl fluoride]
≥ 80%: percent control (mortality or growth inhibition) at 200 ppm (Diabrotica balteata) | mortality at 200 ppm (Spodoptera littoralis) | percent control (mortality or growth inhibition) at 200 ppm (Plutella xylostella) | mortality at 200 ppm (Myzus persicae) | percent control (mortality or growth inhibition) at 200 ppm (Euschistus heros) | mortality at 200 ppm (Thrips tabaci) | mortality at 200 ppm (Tetranychus urticae)

Cc1cc(C2=NO[C@](c3cc(Cl)c(F)c(Cl)c3)(C(F)(F)F)C2)ccc1C(=O)N[C@H]1CON(S(=O)(=O)CF)C1 [Compound A211]
≥ 80%: percent effect (mortality or growth inhibition) at 200 ppm (Diabrotica balteata) | mortality at 200 ppm (Spodoptera littoralis; [1]) | percent effect (mortality or growth inhibition) at 200 ppm (Plutella xylostella) | mortality at 200 ppm (Myzus persicae; [2]) | percent effect (mortality or growth inhibition) at 200 ppm (Euschistus heros) | mortality at 200 ppm (Thrips tabaci; [3]) | mortality at 200 ppm (Tetranychus urticae; [4])

Cc1cc(C2=NO[C@@](c3cc(Cl)cc(Cl)c3)(C(F)(F)F)C2)ccc1C(=O)N[C@H]1CON(S(=O)(=O)N(C)C2CC2)C1 [Compound A156]
≥ 80%: percent effect (mortality or growth inhibition) at 200 ppm (Diabrotica balteata) | mortality at 200 ppm (Spodoptera littoralis; [1]) | percent effect (mortality or growth inhibition) at 200 ppm (Plutella xylostella) | mortality at 200 ppm (Myzus persicae; [2]) | percent effect (mortality or growth inhibition) at 200 ppm (Euschistus heros) | mortality at 200 ppm (Thrips tabaci; [3]) | mortality at 200 ppm (Tetranychus urticae; [4])

CC(C)(C)OC(=O)NS(=O)(=O)N1C[C@@H](NC(=O)c2ccc(C3=NO[C@@](c4cc(Cl)cc(Cl)c4)(C(F)(F)F)C3)cc2Cl)CO1 [Compound A151, tert-butyl N-[(4R)-4-[[2-chloro-4-[(5S)-5-(3,5-dichlorophenyl)-5-(trifluoromethyl)-4H-isoxazol-3-yl]benzoyl]amino]isoxazolidin-2-yl]sulfonylcarbamate]
≥ 80%: percent effect (mortality or growth inhibition) at 200 ppm (Diabrotica balteata) | mortality at 200 ppm (Spodoptera littoralis; [1]) | percent effect (mortality or growth inhibition) at 200 ppm (Plutella xylostella) | mortality at 200 ppm (Myzus persicae; [2]) | percent effect (mortality or growth inhibition) at 200 ppm (Euschistus heros) | mortality at 200 ppm (Thrips tabaci; [3]) | mortality at 200 ppm (Tetranychus urticae; [4])

CCN(C)S(=O)(=O)N1C[C@@H](NC(=O)c2ccc(C3=NO[C@@](c4cc(Cl)cc(Cl)c4)(C(F)(F)F)C3)cc2Cl)CO1 [Compound A129, 2-chloro-4-[(5S)-5-(3,5-dichlorophenyl)-5-(trifluoromethyl)-4H-isoxazol-3-yl]-N-[(4R)-2-[ethyl(methyl)sulfamoyl]isoxazolidin-4-yl]benzamide]
≥ 80%: percent effect (mortality or growth inhibition) at 200 ppm (Diabrotica balteata) | mortality at 200 ppm (Spodoptera littoralis; [1]) | percent effect (mortality or growth inhibition) at 200 ppm (Plutella xylostella) | mortality at 200 ppm (Myzus persicae; [2]) | percent effect (mortality or growth inhibition) at 200 ppm (Euschistus heros) | mortality at 200 ppm (Thrips tabaci; [3]) | mortality at 200 ppm (Tetranychus urticae; [4])

Cc1cc(C2=NO[C@@](c3cc(Cl)c(F)c(Cl)c3)(C(F)(F)F)C2)ccc1C(=O)NC1CON(S(N)(=O)=O)C1 (some centres unmarked) [Compound A71]
≥ 80%: percent effect (mortality or growth inhibition) at 200 ppm (Diabrotica balteata) | mortality at 200 ppm (Spodoptera littoralis; [1]) | percent effect (mortality or growth inhibition) at 200 ppm (Plutella xylostella) | mortality at 200 ppm (Myzus persicae; [2]) | percent effect (mortality or growth inhibition) at 200 ppm (Euschistus heros) | mortality at 200 ppm (Thrips tabaci; [3]) | mortality at 200 ppm (Tetranychus urticae; [4])

COCCS(=O)(=O)N1CC(NC(=O)c2ccc(C3=NO[C@@](c4cc(Cl)c(F)c(Cl)c4)(C(F)(F)F)C3)cc2C)CO1 (some centres unmarked) [Compound A18]
≥ 80%: percent effect (mortality or growth inhibition) at 200 ppm (Diabrotica balteata) | mortality at 200 ppm (Spodoptera littoralis; [1]) | percent effect (mortality or growth inhibition) at 200 ppm (Plutella xylostella) | mortality at 200 ppm (Myzus persicae; [2]) | percent effect (mortality or growth inhibition) at 200 ppm (Euschistus heros) | mortality at 200 ppm (Thrips tabaci; [3]) | mortality at 200 ppm (Tetranychus urticae; [4])

Cc1cc(C2=NO[C@](c3cc(Cl)cc(C(F)(F)F)c3)(C(F)(F)F)C2)ccc1C(=O)N[C@H]1CON(S(=O)(=O)F)C1 [Compound A219]
≥ 80%: percent control (mortality or growth inhibition) at 200 ppm (Diabrotica balteata) | mortality at 200 ppm (Spodoptera littoralis) | percent control (mortality or growth inhibition) at 200 ppm (Plutella xylostella) | mortality at 200 ppm (Myzus persicae) | percent control (mortality or growth inhibition) at 200 ppm (Euschistus heros) | mortality at 200 ppm (Thrips tabaci) | mortality at 200 ppm (Tetranychus urticae)

Cc1cc(C2=NO[C@@](c3cc(Cl)c(Cl)c(Cl)c3)(C(F)(F)F)C2)ccc1C(=O)N[C@@H]1CON(S(=O)(=O)C2CC2)C1 [Compound A229, N-[(4S)-2-cyclopropylsulfonyl-1,2-oxazolidin-4-yl]-2-methyl-4-[(5S)-5-(3,4,5-trichlorophenyl)-5-(trifluoromethyl)-4H-1,2-oxazol-3-yl]benzamide]
≥ 80%: percent effect (mortality or growth inhibition) at 200 ppm (Diabrotica balteata) | mortality at 200 ppm (Spodoptera littoralis; [1]) | percent effect (mortality or growth inhibition) at 200 ppm (Plutella xylostella) | mortality at 200 ppm (Myzus persicae; [2]) | percent effect (mortality or growth inhibition) at 200 ppm (Euschistus heros) | mortality at 200 ppm (Thrips tabaci; [3]) | mortality at 200 ppm (Tetranychus urticae; [4])

Cc1cc(C2=NO[C@](c3cc(Cl)cc(Cl)c3)(C(F)(F)F)C2)ccc1C(=O)N[C@@H]1CON(S(=O)(=O)C(F)F)C1 [Compound A232, 4-[(5R)-5-(3,5-dichlorophenyl)-5-(trifluoromethyl)-4H-1,2-oxazol-3-yl]-N-[(4S)-2-(difluoromethylsulfonyl)-1,2-oxazolidin-4-yl]-2-methylbenzamide]
≥ 80%: percent effect (mortality or growth inhibition) at 200 ppm (Diabrotica balteata) | mortality at 200 ppm (Spodoptera littoralis; [1]) | percent effect (mortality or growth inhibition) at 200 ppm (Plutella xylostella) | mortality at 200 ppm (Myzus persicae; [2]) | percent effect (mortality or growth inhibition) at 200 ppm (Euschistus heros) | mortality at 200 ppm (Thrips tabaci; [3]) | mortality at 200 ppm (Tetranychus urticae; [4])

Cc1cc(C2=NO[C@@](c3cc(Cl)c(F)c(Cl)c3)(C(F)(F)F)C2)ccc1C(=O)NC1CON(S(=O)(=O)N(C)C(C)(C)C)C1 (stereo partly drawn) [Compound A100, N-[2-[tert-butyl(methyl)sulfamoyl]isoxazolidin-4-yl]-4-[(5S)-5-(3,5-dichloro-4-fluoro-phenyl)-5-(trifluoromethyl)-4H-isoxazol-3-yl]-2-methyl-benzamide]
≥ 80%: percent effect (mortality or growth inhibition) at 200 ppm (Diabrotica balteata) | mortality at 200 ppm (Spodoptera littoralis; [1]) | percent effect (mortality or growth inhibition) at 200 ppm (Plutella xylostella) | mortality at 200 ppm (Myzus persicae; [2]) | percent effect (mortality or growth inhibition) at 200 ppm (Euschistus heros) | mortality at 200 ppm (Thrips tabaci; [3]) | mortality at 200 ppm (Tetranychus urticae; [4])
